Seven compounds from patent publication US20080033046A1, “Treatment of myocardial infarction with 11HSD1 inhibitors” (University of Edinburgh, priority 2004, published 2008) can be followed below.

SMILES strings stand for the structures. Entries after “also recorded” stand apart in the source; their conditions may differ.

Series [1] deals with mouse aortic rings. As to the kind of experiment: Angiogenesis in mouse aortic rings embedded in Matrigel (new vessel count). It is filed as cell-based. The following applies: for effect on the angiostatic effect of corticosterone / direct effect on angiogenesis in aortic rings (drug alone): drug 10^−6 M; for effect on the angiostatic effect of corticosterone: corticosterone 600 nM; for direct effect on angiogenesis in aortic rings (drug alone): no glucocorticoid. The method, then: Mice were killed humanely and thoracic aortae were removed, washed in serum free MCDB 131 medium (Invitrogen, UK), cleaned of periadventitial tissue and divided into 1-3 mm rings.
To quantify angiogenesis aortic rings were embedded in 200 μl of steroid free Matrigel (Becton Dickinson, UK) and incubated at 37° C. in serum free MCDB 131, with heparin, ascorbic acid, and GA1000 (Cambrex Biosciences, UK) in the presence and absence of: corticosterone (3 nM, 30 nM, 300 nM, 600 nM); 11-dehydrocorticosterone (300 nM, 60 nM); the glucocorticoid receptor antagonist, RU38486 (10^−6M)^59, the mineralocorticoid receptor antagonist, spironolactone (10^−6 M)^60; and/or the […] 11βHSD inhibitor, carbenoxolone (10^−4-10^−6M)^31. All drugs (Sigma-Aldrich, UK) were dissolved in ethanol and diluted in aqueous solution; final ethanol concentration 1-3% v/v. Media were changed every 48 hours. Experiments were performed in triplicate. In initial experiments, new vessels were counted daily using light microscopy (FIG. 1). From these studies day 7 was selected as the appropriate time point to examine the effects of glucocorticoids (FIG. 1c).
To confirm the nature of apparent new vessels, endothelial cells were identified by uptake of fluorescent-labelled acetylated low-density lipoprotein (DiI-Ac-LDL)(Biogenesis, Dorset UK) FIG. 1b).

Series [2] relates to subcutaneous sponge implants in mice. As to the kind of experiment: Subcutaneous sponge implant assay (vessel density, Chalkley counts). It is filed as in vivo, mouse. To be noted: 20 days; for effect of steroid-impregnated sponge on angiogenesis in vivo: 2 mg steroid in silastic insert. The method, then: (§1) Mice were anaesthetized with halothane and a sterilised sponge cylinder (0.5 cm×1 cm) (Caligen-Foam Ltd., UK) was implanted subcutaneously on each flank. Sponges contained a silastic insert (Silastic 20 medical grade, Dow Corning Corporation, USA) impregnated with vehicle, 2 mg of cortisol or cortisone, or 5 mg of RU38486. […] Such inserts release their impregnated compounds in vivo at a constant rate for 3 weeks. Human steroids (cortisol and cortisone, equivalent to corticosterone and 11-dehydrocorticosterone) were used to allow distinction from endogenous steroids. In separate experiments (not shown) angiogenesis in placebo-impregnated sponges was not altered by the presence or absence of a contralateral steroid-treated sponge.
(§2) Twenty days following implantation, mice were decapitated, sponges excised and inserts removed. Sponges were bisected; one half was fixed in 10% formalin and embedded in paraffin wax. Sections (8 μm) were stained with haematoxylin and eosin (H&E). The second half of the sponge was weighed, homogenised in 2 ml sterile phosphate buffered saline at 4° C. and centrifuged (2000 g; 30 minutes). Steroids were extracted from the supernatant using ethyl acetate and cortisol quantified using a specific radioimmunoassay (Amersham Pharmacia Biotech, UK). Sponge vessel density was determined by using the mean of triplicate Chalkley counts on 2 sections per sponge.

Series [3] deals with mouse aortic rings. As to the kind of experiment: Angiogenesis in mouse aortic rings embedded in Matrigel (new vessel count). It is filed as cell-based. To be noted: wild type rings, drug 10^−6 M, 11-dehydrocorticosterone 600 nM.
A further series is described as follows: in vivo. The following applies: mouse; for concentration at 20 days: Cortisol level. The method, then:
as §1, §2

The mark [4] stands for this setting: aortic rings from 11βHSD-1 −/− mice, glucocorticoid 600 nM, compared with wild type.
Where [5] appears, read: wild type C57B16 aortic rings, 7-day incubation, physiological concentrations (up to 600 nM).
The mark [6] stands for this setting: wild type rings, listed as Carbenoxolone.

With `C[C@]12CC(=O)[C@H]3[C@@H](CCC4=CC(=O)CC[C@@]43C)[C@@H]1CC[C@@H]2C(=O)CO` [11-dehydrocorticosterone], the “effect of glucocorticoid on angiogenesis in aortic rings” value in the series with mouse aortic rings [1] (setting [4]) is “did not inhibit angiogenesis”; in the series on mouse aortic rings [1] (setting [5]), “inhibited angiogenesis; also recorded: angiostatic effect”.
Regarding `CC#C[C@]1(O)CC[C@H]2[C@@H]3CCC4=CC(=O)CCC4=C3[C@@H](c3ccc(N(C)C)cc3)C[C@@]21C` [RU38486], in the series on mouse aortic rings [1] (wild type rings), the “effect on the angiostatic effect of corticosterone” value (shortened to “effect … of corticosterone”) is reported as “prevented” and the “direct effect on angiogenesis in aortic rings (drug alone)” value (“direct effect on angiogenesis” below) is given as “did not affect; also recorded: no effect”. Further, the “new vessel formation in RU38486 impregnated sponges versus contralateral controls” value in series [2] (wild type C57B16 mice, 5 mg in silastic insert) is recorded as “increased; also recorded: greater”. Also, in the series on mouse aortic rings [3], the “effect on the angiostatic effect of 11-dehydrocorticosterone” value (shortened to “effect … of 11-dehydrocorticosterone”) is listed as “prevented”.
For `CC1(C)[C@@H](OC(=O)CCC(=O)O)CC[C@]2(C)[C@H]3C(=O)C=C4[C@@H]5C[C@@](C)(C(=O)O)CC[C@]5(C)CC[C@@]4(C)[C@]3(C)CC[C@@H]12` [carbenoxolone], in the series on mouse aortic rings [1] (wild type rings, 10^−4 M), the “effect on angiogenesis in aortic rings at high concentration” value was “abolished angiogenesis”. The “effect … of corticosterone” value in the series with mouse aortic rings [1] (wild type rings) was “did not potentiate; also recorded: did not influence”; with mouse aortic rings [1] (setting [6]), “no effect”. For the same compound, the “direct effect on angiogenesis” value with mouse aortic rings [1] (wild type rings) is on record as “no direct effect”; with mouse aortic rings [1] (setting [6]), “no effect”. The “effect … of 11-dehydrocorticosterone” value in the series on mouse aortic rings [3] is recorded as “prevented”.
With `C[C@]12C[C@H](O)[C@H]3[C@@H](CCC4=CC(=O)CC[C@@]43C)[C@@H]1CC[C@@H]2C(=O)CO` [corticosterone], the “effect of glucocorticoid on angiogenesis in aortic rings” value with mouse aortic rings [1] (setting [4]) is “inhibited to a similar degree; also recorded: not different between strains”; in the series with mouse aortic rings [1] (setting [5]), “inhibited angiogenesis”.
Turning to `C[C@]12CCC(=O)C=C1CC[C@@H]1[C@@H]2[C@@H](O)C[C@@]2(C)[C@H]1CC[C@]2(O)C(=O)CO` [cortisol], the “effect of steroid-impregnated sponge on angiogenesis in vivo” value (from here on “effect of steroid-impregnated sponge”) is reported as “inhibited angiogenesis to a similar degree” in series [2] (11βHSD-1 −/− mice); “inhibited angiogenesis” in series [2] (11βHSD-1 −/− mice, listed as Cortisol); “inhibited angiogenesis” in series [2] (wild type C57B16 mice). Moreover, the concentration at 20 days in the series “in vivo” (11bHSD-1 −/−, contralateral placebo treated sponge) is 135 ± 46 ng/g; in “in vivo” (11bHSD-1 −/−, ipsilateral steroid treated sponge), 3780 ± 1700 ng/g; in the series “in vivo” (wild type, contralateral placebo treated sponge) it was 161 ± 18 ng/g; in “in vivo” (wild type, ipsilateral steroid treated sponge), 4270 ± 186 ng/g. The “sponge cortisol concentrations, in words” value in the series “in vivo” is listed as “similar”.
As to `C[C@]12CCC(=O)C=C1CC[C@@H]1[C@@H]2C(=O)C[C@@]2(C)[C@H]1CC[C@]2(O)C(=O)CO` [cortisone], the “effect of steroid-impregnated sponge” value in series [2] (11βHSD-1 −/− mice) is “did not inhibit angiogenesis; also recorded: only in wild type mice”. For the same compound, in series [2] (wild type C57B16 mice), the “effect of steroid-impregnated sponge” value is recorded as “inhibited angiogenesis”. In the series “in vivo”, the “sponge cortisol concentrations after impregnation with cortisone compared with cortisol, in words” value is on record as “lower” and the “sponge cortisol concentrations, in words” value was “did not elevate”.
With `CC(=O)S[C@@H]1CC2=CC(=O)CC[C@]2(C)[C@H]2CC[C@@]3(C)[C@@H](CC[C@@]34CCC(=O)O4)[C@H]12` [spironolactone], in the series on mouse aortic rings [1] (wild type rings), the “effect … of corticosterone” value was “no effect” and the “direct effect on angiogenesis” value is given as “no effect”. For the same compound, the “effect … of 11-dehydrocorticosterone” value in the series on mouse aortic rings [3] is “no effect”.
